Source: patent US7763287B2, “Extract of Cercis chinensis having anti-oxidant activity and anti-aging activity, and cosmetical composition containing the extract for anti-oxidation, skin-aging protection and wrinkle improvement” (Hankook Pharm. Co., Inc., priority 2002, dated 2010)

Tests used:
[1] = DPPH radical scavenging activity; assay type: biochemical; details: for DPPH radical scavenging activity IC50: Table 3
Experimental: In order to extract an effective ingredient having an anti-oxidant activity from Cercis chinensis, an experiment was performed following the procedure represented in a schematic diagram of FIG. 1. Particularly, 1 kg of leaves and stems of Cercis chinensis, dried in shadow, were grinded to powder using a pulverizer, which was extracted by ethanol (EtOH) at room temperature twice at intervals of two weeks. For the extraction, ethanol solutions were prepared by adding ethanol gradually, 10% at a time, from 0% to 100%. The prepared ethanol solutions were used for the extraction. […] But, it looses absorbance when being scavenged. Based on that point, an anti-oxidant activity can be measured using DPPH. […] Then, each solution was distributed into a 96 well plate by 10 μl each, into which 190 μl of DPPH(Sigma, St. Louis, Mo, USA) solution whose ethanol concentration was 2×10^−4 M/ml was added. The plate was just left at room temperature for 30 minutes. Finally, OD517 was measured at 517 nm. For a control, DMSO was added instead of the sample, and changes of optical density were investigated. […] DDPH Radical Scavenging Activity (%)=(Acontrol−Asample)/(Acontrol)×100 <Mathematica Formula 1>
Acontrol: Optical density of control group (sample was not added),
Asample: Optical density of experimental group (sample was added).
In order to identify a fraction having an anti oxidant activity among hexane Fr, EtOAc Fr and BuOH Fr obtained above, a DPPH radical scavenging activity was measured using each extract of each fraction following the method used above. At this time, vitamin E, known to have high DPPH radical scavenging activity, was used as a comparing group.
At this time, BHA (tert-butyl-4 hydroxyanisole) and α-tocopherol, synthetic anti-oxidant agents, were used as positive controls.

[2] = Hydroxyl radical scavenging activity (deoxyribose/TBA, method of Halliwell); assay type: biochemical; details: for Hydroxyl radical scavenging activity (%): 10 μg of sample, total volume 1 ml
Experimental: Hydroxyl radical (HO.) is generated by the reaction of a metal ion or a superoxide radical. Owing to its strong reactivity, hydroxyl radical causes oxidative damages to DNA, protein and lipid in vivo. Nitric oxide (NO.) is reacted with a superoxide radical to generate a peroxy nitrite (ONOO—), also having strong reactivity. […] Particularly, each compound was mixed with 10 μg of a sample dissolved in DMSO, phosphate buffer (20 mM, pH 7.4) 5.6 mM deoxyribose, 0.1 mM FeCl3, 1 mM H2O2 and 0.1 mM ascorbic acid, making total volume 1 ml, which was then reacted at 37° C. for 60 minutes. 250 μl of 20% TCA and 250 μl of 1% TBA solution (dissolved in 50 mM NaOH) were added to the reaction solution, followed by thermal reaction at 95° C. for 5 minutes. After completing the reaction, OD532 was measured. Hydroxyl radical scavenging activity was calculated by the below
<Mathematical Formula 3>. BHA and α-tocopherol were used for a positive control. Hydroxyl Radical Scavenging Activity (%)=(Acontrol−Asample)/(Acontrol−Ablank)×100 <Mathematical Formula 3>
Acontrol: Optical density of control group well (sample was not added),
Asample: Optical density of experimental group well (sample was added),
Ablank: Optical density of well not added with sample, TCA and TBA

[3] = system: rat brain homogenates; experiment: Lipid peroxidation inhibitory activity (Fe2+/ascorbic acid, TBA method); details: Table 4
[4] = Superoxide radical scavenging activity (xanthine/xanthine oxidase, NBT); assay type: biochemical; details: Table 6
Experimental: Superoxide radical (O^2−) itself has a little reactivity, but is easily changed into H2O2 that generates hydroxyl radical having strong reactivity or is reacted with nitric oxide (NO.) to generate peroxy nitrite (ONOO^−) having strong reactivity, too. Thus, it might be a reason for oxidation of SH-group, nitration of protein tyrosine, lipid peroxidation and DNA damage. […] Basically, measurement of superoxide radical scavenging activity was performed by investigating the activity of superoxide dismutase (SOD), an enzyme scavenging superoxide by dismutation of the same. In the present invention, an activity of a sample to inhibit superoxide production by the enzyme reaction of xanthine/xanthine oxidase and its another activity to inhibit reaction (NBT+20^2−→NBTH2+2O2) generating formazan by reduction of nitro blue tetrazolium (referred as ‘NBT’ hereinafter) were measured. Particularly, wells of a 96-well plate were supplemented with 50 μl of 4 mM xanthine (Sigma), 50 μl of […] NBT (Sigma), 50 μl of 50 mM phosphate buffer (pH 7.8, 1 mM EDTA) and 10 μl of each sample, into which 40 μl of xanthine oxidase was added to induce a reaction. After the reaction was completed, each reaction solution was collected as scheduled, and OD550 was measured with an ELISA reader. […] Superoxide Radical Scavenging Activity (%)=(Acontrol−Asample)/(Acontrol−Ablank)×100 <Mathematical Formula 4> […]

[5] = system: HEK-N/F cells; experiment: Protection of cells from oxidative damage induced by t-butylhydroperoxide; assay type: cell-based, human; details: 1.5 mM t-butylhydroperoxide 3 hours; for TBARS (pmol/mg protein): compound 50.0 µg/ml
Experimental: t-butylhydroperoxide is metabolized into a free radical intermediate as it comes in a cell, so that it causes lipid peroxidation, resulting in cell damage. This phenomenon is similar to that caused by oxidataive stress accumulated in cells and tissues. […] HEK-N/F, an epidermal cell line of a newborn baby, was treated with 1.5 mM of t-butylhydroxyperoxide for 3 hours.

[6] = Nitric oxide scavenging activity; assay type: biochemical; design: Nitric oxide scavenging activity (%): concentration or dose not given beside the values

Molecule | DPPH radical scavenging activity IC50 [1] | Hydroxyl radical scavenging activity (%) [2] | Lipid Peroxidation Inhibitory Activity IC50 [3] | Superoxide radical scavenging activity IC50 [4] | Cell survival rate (%) [5] | TBARS (pmol/mg protein) [5] | Nitric oxide scavenging activity (%) [6] | Hydroxyl radical scavenging activity (in words) [2] | DPPH radical scavenging IC50 ([1]; fractions of the 60% ethanol extract) | DPPH radical scavenging activity (in words) [1] | Nitric oxide scavenging activity (in words) [6]
Cc1c(C)c2c(c(C)c1O)CC[C@@](C)(CCC[C@H](C)CCC[C@H](C)CCCC(C)C)O2 [α-tocopherol, reference compound] | 25.4 ± 0.9 µg/mL | 0.8% | 6.61 ± 0.95 µg/mL |  |  |  |  |  |  |  | 
COc1cc(-c2oc3cc(O)cc(O)c3c(=O)c2O[C@@H]2O[C@H](CO[C@@H]3O[C@@H](C)[C@H](O)[C@@H](O)[C@H]3O)[C@@H](O)[C@H](O)[C@H]2O)cc(OC)c1O [Chemical Formula 14, syringetin-3-O-rutinoside] | 35.1 ± 1.5 µg/mL | 10.2% | 19.0 ± 1.52 µg/mL | 45.2 ± 2.2 µg/mL | 20.0 ± 2.6% | 2928.1 ± 209.9 pmol/mg protein | 6.0 ± 0.8% |  |  |  | 
COC(=O)c1cc(O)c(O)c(O)c1 [Chemical Formula 7, methyl gallate] | 5.3 ± 0.3 µg/mL | 43.8% | 7.05 ± 0.87 µg/mL | 16.5 ± 1.4 µg/mL | 43.0±5.6% | 1024.4 ± 91.9 pmol/mg protein | 32.6 ± 2.8% | remarkably higher hydroxyl radical scavenging activities |  |  | 
vitamin E [reference compound] |  |  |  |  |  |  |  |  | 24.9 µg/mL |  | 
tert-butyl-4-hydroxyanisole [BHA, reference compound] | 15.3 ± 0.6 µg/mL | 15.6% | 0.11 ± 0.02 µg/mL | 48.8 ± 2.5 µg/mL |  |  |  |  |  |  | 
COc1ccc(/C=C/C(=O)c2ccc(O)cc2O)cc1 [Chemical Formula 2, 2′,4′-dihydroxy-4-methoxychalcone] | >50 µg/mL | 4.5% | 12.81 ± 1.86 µg/mL | 49.8 ± 3.1 µg/mL | 16.2 ± 3.2% | 3449.7 ± 305.8 pmol/mg protein |  |  |  |  | 
COc1cc(-c2oc3cc(O)cc(O)c3c(=O)c2O[C@@H]2O[C@H](CO[C@@H]3O[C@@H](C)[C@H](O)[C@@H](O)[C@H]3O)[C@@H](O)[C@H](O)[C@H]2OC(=O)c2cc(O)c(O)c(O)c2)cc(OC)c1O [Chemical Formula 15, syringetin-3-O-(2″-O-galloyl)-rutinoside] | 29.2 ± 1.8 µg/mL | 16.4% | 10.10 ± 1.02 µg/mL | 37.1 ± 2.0 µg/mL |  |  | 14.1 ± 1.4% |  |  |  | 
C[C@@H]1O[C@@H](Oc2c(-c3ccc(O)cc3)oc3cc(O)cc(O)c3c2=O)[C@H](O)[C@H](O)[C@H]1O [Chemical Formula 10, afzelin] |  |  |  |  | 16.8 ± 1.3% | 3295.1 ± 304.5 pmol/mg protein |  |  |  |  | 
O=C(O)c1cc(O)c(O)c(O)c1 [Chemical Formula 6, gallic acid] | 5.1 ± 0.4 µg/mL | 33.6% | 6.80 ± 0.63 µg/mL |  | 41.5±3.1% | 1245.7 ± 112.4 pmol/mg protein | 25.0 ± 2.0% |  |  |  | 
O=C(/C=C/c1ccc(O)cc1)c1ccc(O)cc1O [Chemical Formula 1, isoliquiritigenin] |  |  | 3.33 ± 0.50 µg/mL |  | 13.9 ± 12.6% | 5118.1 ± 410.5 pmol/mg protein |  |  |  |  | 
Oc1cc(O)c2c(c1)O[C@H](c1ccc(O)c(O)c1)[C@@H](O)C2 [Chemical Formula 16, (+)-catechin] | 15.6 ± 0.8 µg/mL | 12.7% | 4.71 ± 0.26 µg/mL | 16.5 ± 2.0 µg/mL | 24.5 ± 1.9% | 1912.4 ± 112.0 pmol/mg protein | 16.9 ± 1.1% |  |  | strong radical scavenging activity | comparatively high nitric oxide scavenging activity
COc1cc(C2c3c(cc(OC)c(O)c3OC)CC(CO)C2CO[C@@H]2O[C@H](CO)[C@@H](O)[C@H](O)[C@H]2O)cc(OC)c1O (single isomer, unassigned; (+)) [Chemical Formula 20, (+)-lyoniresiol 3a-O-β-D-glucopyranoside] | 42.6 ± 3.1 µg/mL | 8.1% | 39.10 ± 3.11 µg/mL | >100 µg/mL | 12.9 ± 2.1% | 7635.7 ± 631.2 pmol/mg protein | 0.8 ± 0.8% |  |  |  | 
CCOC(=O)c1cc(O)c(O)c(O)c1 [Chemical Formula 8, ethyl gallate] | 7.0 ± 1.0 µg/mL | 44.0% | 7.01 ± 0.62 µg/mL | 15.8 ± 1.6 µg/mL | 43.1±4.1% | 1115.6 ± 96.2 pmol/mg protein | 33.4 ± 2.1% | remarkably higher hydroxyl radical scavenging activities |  |  | 
O=C1C[C@@H](c2ccc(O)cc2)Oc2cc(O)ccc21 [Chemical Formula 3, liquiritigenin] | >50 µg/mL | 3.2% | 6.05 ± 0.99 µg/mL | 59.2 ± 3.8 µg/mL | 12.1 ± 1.0% | 8255.1 ± 576.4 pmol/mg protein |  |  |  |  | 
Oc1ccc(C=Cc2cc(O)cc(O)c2)cc1 [Chemical Formula 4, resveratrol] |  |  | 0.89 ± 0.10 µg/mL |  | 18.1 ± 1.6% | 2792.4 ± 259.1 pmol/mg protein |  |  |  |  | 
C[C@@H]1O[C@@H](Oc2c(-c3ccc(O)c(O)c3)oc3cc(O)cc(O)c3c2=O)[C@H](O)[C@H](O)[C@H]1O [Chemical Formula 11, quercitrin] |  |  |  |  |  | 2217.2 ± 200.3 pmol/mg protein |  |  |  |  | 
O=C(O)/C=C/c1ccc(O)c(O)c1 [Caffeic acid, caffeic acid, reference compound] |  |  |  | 11.0 ± 1.8 µg/mL |  |  |  |  |  |  | 
